Calls of active or inactive are those of the source.
Columns and labels:
Candida albicans = experiment: Antimicrobial activity against Candida albicans at 50 ug/ml by disk diffusion method; format: functional, organism-based
HL-60 = experiment: Cytotoxicity against human HL60 cells at 40 uM by MTT assay; format: functional, cell-based
Escherichia coli = experiment: Antimicrobial activity against Escherichia coli at 50 ug/ml by disk diffusion method; format: functional, organism-based
SMMC-7721 = experiment: Cytotoxicity against human SMMC7721 cells at 40 uM by MTT assay; format: functional, cell-based
Staphylococcus aureus = experiment: Antimicrobial activity against Staphylococcus aureus at 50 ug/ml by disk diffusion method; format: functional, organism-based
Panagrellus redivivus = experiment: Antinematodal activity against Panagrellus redivivus at 100 ug/ml by disk diffusion method; format: functional, organism-based
A549 = experiment: Cytotoxicity against human A549 cells at 40 uM by MTT assay; format: functional, cell-based

C=C1[C@H](O)[C@@H]2[C@H]3[C@H](CC[C@]2(C)O)[C@@H](C)C[C@H](O)[C@@]13O
inactive: inhibition (Candida albicans) | Activity (HL-60) | inhibition (Escherichia coli) | Activity (SMMC-7721) | inhibition (Staphylococcus aureus) | Activity (Panagrellus redivivus) | Activity (A549)

C=C1[C@@H](O)[C@@H]2[C@H]3[C@H](CC[C@@]2(C)O)[C@@H](C)CC(=O)[C@@]13O
inactive: inhibition (Candida albicans) | Activity (HL-60) | inhibition (Escherichia coli) | Activity (SMMC-7721) | inhibition (Staphylococcus aureus) | Activity (Panagrellus redivivus) | Activity (A549)

C=C1[C@H](O)[C@@H]2[C@H]3[C@H](CC[C@]2(C)O)[C@@H](C)CC(=O)[C@@]13O
inactive: inhibition (Candida albicans) | Activity (HL-60) | inhibition (Escherichia coli) | Activity (SMMC-7721) | inhibition (Staphylococcus aureus) | Activity (Panagrellus redivivus) | Activity (A549)

Reference: ChEMBL document CHEMBL1687857, “Stereumins H-J, stereumane-type sesquiterpenes from the fungus Stereum sp” (J Nat Prod, 2011)
